In the supplement of paper PMC10883282:

What was measured:
Experiment in all cases: relative viability vs DMSO control (72 h) (fraction); higher = more viable cells
G401 = tested on: G401
How it was run: (§1)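 Sarcoma cell lines in 384-well plates, seeded to reach 80–90% confluence, were given compound after 24 h and kept 72 h at 37 °C, 5% CO2, with 0.1% DMSO vehicle and a 5 µM positive control. Relative viability came from ATPLite as percent growth, averaged over up to triplicate wells. On the rescaled values, 1 equals full and 0 equals none.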

HS729 = tested on: HS729
How it was run: as §1

SYO-1 = tested on: SYO-1
How it was run: as §1

SW872 = tested on: SW872
How it was run: as §1

VA-ES-BJ = tested on: VA-ES-BJ
How it was run: as §1

A204 = tested on: A204
How it was run: as §1

SK-ES-1 = tested on: SK-ES-1
How it was run: as §1

SK-LMS-1 = tested on: SK-LMS-1
How it was run: as §1

SW684 = tested on: SW684
How it was run: as §1

MES-SA = tested on: MES-SA
How it was run: as §1

RD = tested on: RD
How it was run: as §1

KHOS-NP = tested on: KHOS-NP
How it was run: as §1

CC[C@@H]1CN(C(=O)NCC(F)(F)F)C[C@@H]1c1cnc2cnc3[nH]ccc3n12 [Upadacitinib]
Details | relative viability
A204, 0.00017 µM | 1.05
A204, 0.00051 µM | 1.1
A204, 0.00152 µM | 1.1
A204, 0.00457 µM | 1.07
A204, 0.01372 µM | 1.05
A204, 0.04115 µM | 1.05
A204, 0.1235 µM | 1.07
A204, 0.3704 µM | 1.03
A204, 1.111 µM | 1.03
A204, 3.333 µM | 0.945
A204, 10 µM | 0.832
G401, 0.00017 µM | 1.03
G401, 0.00051 µM | 1.04
G401, 0.00152 µM | 1
G401, 0.00457 µM | 1.04
G401, 0.01372 µM | 1.02
G401, 0.04115 µM | 0.987
G401, 0.1235 µM | 1.01
G401, 0.3704 µM | 0.977
G401, 1.111 µM | 0.953
G401, 3.333 µM | 0.904
G401, 10 µM | 0.842
HS729, 0.00017 µM | 1.02
HS729, 0.00051 µM | 0.954
HS729, 0.00152 µM | 0.973
HS729, 0.00457 µM | 0.97
HS729, 0.01372 µM | 0.931
HS729, 0.04115 µM | 0.946
HS729, 0.1235 µM | 0.895
HS729, 0.3704 µM | 0.837
HS729, 1.111 µM | 0.834
HS729, 3.333 µM | 0.805
HS729, 10 µM | 0.761
KHOS-NP, 0.00017 µM | 1.07
KHOS-NP, 0.00051 µM | 1.09
KHOS-NP, 0.00152 µM | 1.07
KHOS-NP, 0.00457 µM | 1.08
KHOS-NP, 0.01372 µM | 1.08
KHOS-NP, 0.04115 µM | 1.088
KHOS-NP, 0.1235 µM | 1.07
KHOS-NP, 0.3704 µM | 1.06
KHOS-NP, 1.111 µM | 1.03
KHOS-NP, 3.333 µM | 0.965
KHOS-NP, 10 µM | 0.912
MES-SA, 0.00017 µM | 0.941
MES-SA, 0.00051 µM | 0.949
MES-SA, 0.00152 µM | 0.947
MES-SA, 0.00457 µM | 0.939
MES-SA, 0.01372 µM | 0.932
MES-SA, 0.04115 µM | 0.92
MES-SA, 0.1235 µM | 0.923
MES-SA, 0.3704 µM | 0.936
MES-SA, 1.111 µM | 0.885
MES-SA, 3.333 µM | 0.873
MES-SA, 10 µM | 0.812
RD, 0.00017 µM | 1.07
RD, 0.00051 µM | 1.08
RD, 0.00152 µM | 1.13
RD, 0.00457 µM | 1.13
RD, 0.01372 µM | 1.14
RD, 0.04115 µM | 1.14
RD, 0.1235 µM | 1.08
RD, 0.3704 µM | 1.14
RD, 1.111 µM | 1.14
RD, 3.333 µM | 1.07
RD, 10 µM | 1
SK-ES-1, 0.00017 µM | 1.02
SK-ES-1, 0.00051 µM | 1.01
SK-ES-1, 0.00152 µM | 1.05
SK-ES-1, 0.00457 µM | 1.02
SK-ES-1, 0.01372 µM | 1.02
SK-ES-1, 0.04115 µM | 1
SK-ES-1, 0.1235 µM | 1.058
SK-ES-1, 0.3704 µM | 1.01
SK-ES-1, 1.111 µM | 0.982
SK-ES-1, 3.333 µM | 0.986
SK-ES-1, 10 µM | 0.907
SK-LMS-1, 0.00017 µM | 1.06
SK-LMS-1, 0.00051 µM | 1.05
SK-LMS-1, 0.00152 µM | 1.07
SK-LMS-1, 0.00457 µM | 1.07
SK-LMS-1, 0.01372 µM | 1.09
SK-LMS-1, 0.04115 µM | 1.08
SK-LMS-1, 0.1235 µM | 1.056
SK-LMS-1, 0.3704 µM | 1.05
SK-LMS-1, 1.111 µM | 1.02
SK-LMS-1, 3.333 µM | 0.979
SK-LMS-1, 10 µM | 0.772
SW684, 0.00017 µM | 1.1
SW684, 0.00051 µM | 1.19
SW684, 0.00152 µM | 1.18
SW684, 0.00457 µM | 1.18
SW684, 0.01372 µM | 1.17
SW684, 0.04115 µM | 1.16
SW684, 0.1235 µM | 1.18
SW684, 0.3704 µM | 1.13
SW684, 1.111 µM | 1.17
SW684, 3.333 µM | 1.11
SW684, 10 µM | 1.03
SW872, 0.00017 µM | 1.07
SW872, 0.00051 µM | 1.07
SW872, 0.00152 µM | 1.07
SW872, 0.00457 µM | 1.03
SW872, 0.01372 µM | 1.03
SW872, 0.04115 µM | 1.01
SW872, 0.1235 µM | 1.01
SW872, 0.3704 µM | 0.963
SW872, 1.111 µM | 1
SW872, 3.333 µM | 0.97
SW872, 10 µM | 0.85
SYO-1, 0.00017 µM | 1.04
SYO-1, 0.00051 µM | 1
SYO-1, 0.00152 µM | 0.988
SYO-1, 0.00457 µM | 0.978
SYO-1, 0.01372 µM | 0.958
SYO-1, 0.04115 µM | 0.934
SYO-1, 0.1235 µM | 0.927
SYO-1, 0.3704 µM | 0.894
SYO-1, 1.111 µM | 0.826
SYO-1, 3.333 µM | 0.764
SYO-1, 10 µM | 0.592
VA-ES-BJ, 0.00017 µM | 1.1
VA-ES-BJ, 0.00051 µM | 1.05
VA-ES-BJ, 0.00152 µM | 1.07
VA-ES-BJ, 0.00457 µM | 1.04
VA-ES-BJ, 0.01372 µM | 1.05
VA-ES-BJ, 0.04115 µM | 1.06
VA-ES-BJ, 0.1235 µM | 1.04
VA-ES-BJ, 0.3704 µM | 1.037
VA-ES-BJ, 1.111 µM | 1
VA-ES-BJ, 3.333 µM | 1.03
VA-ES-BJ, 10 µM | 0.995
